Results reported in patent publication US6875425B2, “Skin lightening agents, compositions and methods” (Unilever Home & Personal Care USA, priority 2002, dated 2005).

Tested on: mushroom tyrosinase
Test: Mushroom Tyrosinase Assay
Type: biochemical
Conditions: for % of Control (Melanin Synthesis): L-DOPA substrate, slope of 475-nm absorbency vs. ethanol control
Experimental: Mushroom tyrosinase inhibition is indicative of reduction in melanin synthesis, thereby showing skin lightening effect. […] Following an initial measurement of background absorbency at 475-nm, 20 microliters of mushroom tyrosinase (Sigma T-7755; 6050 units/ml) was added and incubated at room temperature. Absorbency is read at 475-nm over the following time points: 0, 2, 4, and 6.5 minutes. The data is plotted as 475-nm absorbency vs. time (minutes) and the slope of the line is calculated (ΔAbs 475nm/min). Values are expressed as the percentage of the respective untreated ethanol control reaction. [formula]

| % of Control (Melanin Synthesis) (0.1 uM compound) | % of Control (Melanin Synthesis) (1 uM compound) | % of Control (Melanin Synthesis) (10 uM compound) | % of Control (Melanin Synthesis) (100 uM compound) | activity in the mushroom tyrosinase assay (in words) (summary of Table 8) | SMILES |
| --- | --- | --- | --- | --- | --- |
| 97 % of Control | 98 % of Control | 98 % of Control | 100 % of Control | does not display activity | Oc1cccc(O)c1 [Resorcinol] |
| 73 % of Control | 46 % of Control | 31 % of Control | 21 % of Control | – | CCc1ccc(O)cc1O [4-Ethyl Resorcinol] |

| SMILES | % of Control (Melanin Synthesis) (0.1 uM compound) | % of Control (Melanin Synthesis) (1 uM compound) | % of Control (Melanin Synthesis) (10 uM compound) | % of Control (Melanin Synthesis) (100 uM compound) | activity in the mushroom tyrosinase assay (in words) (summary of Table 8) |
| --- | --- | --- | --- | --- | --- |
| Oc1ccc(C2SCCCS2)c(O)c1 [1,3-di-Thiane Resorcinol] | 87 % of Control | 57 % of Control | 48 % of Control | 47 % of Control | – |
